Assays:
[1] = system: actin polymerisation; assay: Cellular actin polymerisation test with GST-WH2/A beads in cell extracts; assay type: biochemical, human
Description: The GST-WH2/A protein was absorbed onto 500 nm latex beads (Polyscience Inc., 400 Valley Road, Warrington Pa., USA) following the manufacturers' instructions.
Moreover, the components recruited onto the surface of the beads, are targets for tyrosine kinase signalling pathways. Thanks to this in vitro system, it is now possible to study the conditions necessary for actin polymerisation in cells, a process which up to now has not been accessible to direct experimental manipulation.
The cellular actin polymerisation test of the invention has all these characteristics. Beads measuring 200–500 nm can be produced by absorbing purified GST-WH2/A recombinant protein on their surface. […] The beads are then added to extracts prepared from supernatants of lysed cells in culture. The volume of extract necessary for an experiment is of the order of a few microlitres, reducing the cost of the experiment. These extracts have the advantage that they can be produced in a large quantity and stored for a long period, at −80° C. Before the addition of these beads, a fluorescent actin derivative (commercial actin-rhodamine) is added to the extract to make the actin polymerisation visible by epifluorescence microscopy. The actin polymerisation is observed 15 min after the addition of the beads, resulting in an accumulation of fluorescent actin around the beads. […]

[2] = system: actin cytoskeleton; conditions: after some years of use; cited from earlier work
[3] = system: actin polymerisation on the surface of GST-WA particles; assay: Inhibition of actin polymerisation induced by GST-WA protein on particles in HeLa extracts; assay type: biochemical, human
Description: Inhibition of actin polymerisation induced by GST-WA protein: 10 μm polystyrene particles (Polysciences inc.) are covered to saturation with GST-WA protein according to the manufacturer's protocol. The particles are resuspended to 1% solid in PBS (Phosphate Buffer Saline) and stored on ice. To test the independence of the actin polymerisation mechanism induced by GST-WA we prepared three solutions. Each sample contained 15 μl of HeLa extracts (supplemented with ATP, creatine phosphate and actin marked with rhodamine), 0.5 μl of GST-WA particles and 1.5 μl of PBS (A), or 1.5 μl of GST-WA protein at 1 mg/ml (B) or 1.5 μl of GST-PRO protein (PRO corresponding to the fragment delimited by the amino acids situated at positions 235 to 584 of the ActA protein of Listeria monocytogenes) at 1 mg/ml (C). 6 μl of the final mixture of these three solutions were sealed between slide and coverglass. We observed fluorescence (rhodamine actin) around the particles for thirty minutes and measured the intensity of fluorescence on a population of forty beads using a microscope (Leica) and a linear digital camera (Micromax Princeton instrument). The average intensity M (arbitrary unit) was 95,000±13,000 for sample A (positive control). For sample B, M=0±1000, the actin polymerisation on the surface of the particles was inhibited by the addition of GST-WA in solution. […]

C=C1[C@@H](C)[C@H]2[C@H](Cc3ccccc3)NC(=O)[C@]23[C@H](OC(C)=O)/C=C/[C@@](C)(O)C(=O)[C@@H](C)C/C=C/[C@H]3[C@@H]1O [cytochalasin D]
sensitivity of the screening test to known medicaments inhibiting actin polymerisation [1]: sensitive

CCCC(CCC)C(=O)O [valproic acid]
teratogenic properties due to secondary effects on the actin cytoskeleton [2]: teratogenic properties

latrunculin
sensitivity of the screening test to known medicaments inhibiting actin polymerisation [1]: sensitive

B1: GST-WA: recombinant fusion of GST, WH2/A domain of human WASP (positions 404-502, SEQ ID NO: 4) and myc9E10 epitope (protein)
chain: PSSGNGPAPPPLPPALVPAGGLAPGGGRGALLDQIRQGIQLNKTPGAPESSALQPPPQSSEGLVGALMHVMQKRSRAIHSSDEGEDQAGDEDEDDEWDDEQKLISEEDL
modifications: left off: a dimerising Fc or GST
average intensity M of fluorescence (rhodamine actin) around the particles ([3]; 1.5 μl protein at 1 mg/ml added to 15 μl HeLa extracts + 0.5 μl GST-WA particles (10 μm polystyrene), thirty minutes, forty beads, PBS control (sample A) 95,000±13,000): 0±1000 arbitrary unit
actin polymerisation on the surface of the particles after addition of the protein in solution ([3]; protein at 1 mg/ml in solution, HeLa extracts, GST-WA particles): inhibited

— patent US7063829B2, “Wasp family protein fragments, and use thereof” (Centre National de la Recherche Scientifique, priority 1999, dated 2006)
